Results taken from patent US10375956B2, “Herbicidally active 2-(substituted-phenyl)-cyclopentane-1,3-dione compounds and derivatives thereof” (Syngenta Limited, priority 2013, dated 2019).

Key:
Assay in all cases: Test 2 glasshouse assay (IF50 formulation, X-77), post-emergence herbicidal activity
Type in all cases: in vivo
[1] = test system: Panicum miliaceum (PANMI); details: 360 h, 15 DAA, visual score, read-out: Post-emergence herbicidal activity (percentage phytotoxicity) PANMI; for pest or weed control at 30 g/ha: application rate 30 g/ha; for pest or weed control at 125 g/ha: application rate 125 g/ha; for pest or weed control at 250 g/ha: application rate 250 g/ha
Procedure: (§1) Seeds of a variety of monocotyledonous and dicotyledonous test plants are sown in standard soil in pots. The plants are cultivated for one day (for pre-emergence) or for about 12 days (for post-emergence) under controlled conditions in a glasshouse (warm climate species at 24/18° C., cool climate species at 20/16° C., both at day/night; 16 hours light; 65% humidity).
(§2) An “instant formulation”, known as the “IF50”, containing 50 g/liter (i.e. 5% w/v) of the “technical” (i.e. unformulated) active ingredient is prepared by dissolving the active ingredient in a mixture of organic solvents and emulsifier, details of which are provided in the Table below. This IF50 is then mixed with a small, variable amount of acetone to aid dissolution, before addition of a 0.2% v/v aqueous solution of the adjuvant X-77 (which is a mixture of alkyl aryl polyoxyethylene glycols and free fatty acids in isopropanol, CAS Registry number 11097-66-8), as the aqueous diluent, to form an aqueous spray solution which contains a predetermined concentration of the active ingredient (which varies depending on the application rate of the active ingredient to the plants) and 0.2% v/v of the adjuvant X-77. This aqueous spray solution is then sprayed onto the plants, after one day's cultivation (for pre-emergence), or after about 12 days' cultivation (range=10-13 days) (for post-emergence).
(§3) The test plants are then grown on, in a glasshouse (greenhouse) under controlled conditions (warm climate species at 24/18° C., cool climate species at 20/16° C., both at day/night; 16 hours light; 65% humidity) and are watered twice daily. 15 days after application of the test herbicide (15DAA) (for post-emergence), and 20 days after application of the test herbicide (20DAA) (for pre-emergence), the test plants are evaluated visually, and an assessed percentage phytotoxicity score is given for each herbicidal application on each plant species (with 100%=total damage to plant; 0%=no damage to plant).
(§4) Warm climate (“warm season”) grassy monocotyledonous weeds: Setaria faberi (SETFA), Panicum miliaceum (PANMI), Sorghum vulgare Pers. (SORVU) (or Sorghum bicolor (L) Moench ssp. Bicolor), Digitaria sanguinalis (DIGSA), Echinochloa crus-galli (ECHCG), and Brachiaria plantaginea (BRAPL).

Setaria faberi (SETFA) = details: 360 h, 15 DAA, visual score, read-out: Post-emergence herbicidal activity (percentage phytotoxicity) SETFA; for pest or weed control at 30 g/ha: application rate 30 g/ha; for pest or weed control at 125 g/ha: application rate 125 g/ha; for pest or weed control at 250 g/ha: application rate 250 g/ha
Procedure: as §1, §2, §3, §4

[2] = test system: Echinochloa crus-galli (ECHCG); details: 360 h, 15 DAA, visual score, read-out: Post-emergence herbicidal activity (percentage phytotoxicity) ECHCG; for pest or weed control at 30 g/ha: application rate 30 g/ha; for pest or weed control at 125 g/ha: application rate 125 g/ha; for pest or weed control at 250 g/ha: application rate 250 g/ha
Procedure: as §1, §2, §3, §4

[3] = test system: Digitaria sanguinalis (DIGSA); details: 360 h, 15 DAA, visual score, read-out: Post-emergence herbicidal activity (percentage phytotoxicity) DIGSA; for pest or weed control at 30 g/ha: application rate 30 g/ha; for pest or weed control at 125 g/ha: application rate 125 g/ha; for pest or weed control at 250 g/ha: application rate 250 g/ha
Procedure: as §1, §2, §3, §4

[4] = test system: Brachiaria plantaginea (BRAPL); details: Urochloa plantaginea, 360 h, 15 DAA, visual score, read-out: Post-emergence herbicidal activity (percentage phytotoxicity) BRAPL; for pest or weed control at 30 g/ha: application rate 30 g/ha; for pest or weed control at 125 g/ha: application rate 125 g/ha
Procedure: as §1, §2, §3, §4

[5] = test system: Sorghum vulgare Pers. (SORVU); details: Sorghum bicolor, 360 h, 15 DAA, visual score, read-out: Post-emergence herbicidal activity (percentage phytotoxicity) SORVU; for pest or weed control at 30 g/ha: application rate 30 g/ha; for pest or weed control at 125 g/ha: application rate 125 g/ha; for pest or weed control at 250 g/ha: application rate 250 g/ha
Procedure: as §1, §2, §3, §4

C#CCC1CC(=O)C(c2c(Cl)cc(-c3ccc(F)c(F)c3)cc2OC)C1=O (centres unmarked) [Compound A13]
pest or weed control at 30 g/ha [1]: 100% | pest or weed control at 125 g/ha [1]: 100% | pest or weed control at 30 g/ha (Setaria faberi (SETFA)): 100% | pest or weed control at 125 g/ha (Setaria faberi (SETFA)): 100% | pest or weed control at 30 g/ha [2]: 100% | pest or weed control at 125 g/ha [2]: 100% | pest or weed control at 30 g/ha [3]: 100% | pest or weed control at 125 g/ha [3]: 100% | pest or weed control at 30 g/ha [4]: 90% | pest or weed control at 125 g/ha [4]: 100% | pest or weed control at 30 g/ha [5]: 100% | pest or weed control at 125 g/ha [5]: 100%

C#CCC1CC(=O)C(c2c(Cl)cc(-c3ccc(Cl)cn3)cc2OC)C1=O (centres unmarked) [Compound A10]
pest or weed control at 30 g/ha [1]: 100% | pest or weed control at 250 g/ha [1]: 100% | pest or weed control at 30 g/ha (Setaria faberi (SETFA)): 100% | pest or weed control at 250 g/ha (Setaria faberi (SETFA)): 100% | pest or weed control at 30 g/ha [2]: 100% | pest or weed control at 250 g/ha [2]: 100% | pest or weed control at 30 g/ha [3]: 100% | pest or weed control at 250 g/ha [3]: 100% | pest or weed control at 30 g/ha [5]: 100% | pest or weed control at 250 g/ha [5]: 100%

C#CCC1CC(=O)C(c2c(C)cc(-c3ncc(Cl)cc3F)cc2C)C1=O (centres unmarked) [Compound A3]
pest or weed control at 30 g/ha [1]: 100% | pest or weed control at 250 g/ha [1]: 100% | pest or weed control at 30 g/ha (Setaria faberi (SETFA)): 100% | pest or weed control at 250 g/ha (Setaria faberi (SETFA)): 100% | pest or weed control at 30 g/ha [2]: 100% | pest or weed control at 250 g/ha [2]: 100% | pest or weed control at 30 g/ha [3]: 100% | pest or weed control at 250 g/ha [3]: 100% | pest or weed control at 30 g/ha [4]: 80% | pest or weed control at 250 g/ha ([4]; application rate 250 g/ha): 100% | pest or weed control at 30 g/ha [5]: 100% | pest or weed control at 250 g/ha [5]: 100%

C#CCC1CC(=O)C(c2c(C)cc(C)cc2C)C1=O (centres unmarked) [Compound A23]
pest or weed control at 125 g/ha [1]: 100% | pest or weed control at 125 g/ha (Setaria faberi (SETFA)): 80% | pest or weed control at 125 g/ha [2]: 100% | pest or weed control at 125 g/ha [3]: 100% | pest or weed control at 125 g/ha [5]: 90%

C#CCC1CC(=O)C(c2c(C)cc(-c3ccc(F)cc3)cc2C)C1=O (centres unmarked) [Compound A1, 2-[4-(4-fluorophenyl)-2,6-dimethyl-phenyl]-4-prop-2-ynylcyclopentane-1,3-dione]
pest or weed control at 30 g/ha [1]: 80% | pest or weed control at 125 g/ha [1]: 100% | pest or weed control at 30 g/ha (Setaria faberi (SETFA)): 90% | pest or weed control at 125 g/ha (Setaria faberi (SETFA)): 100% | pest or weed control at 30 g/ha [2]: 100% | pest or weed control at 125 g/ha [2]: 100% | pest or weed control at 30 g/ha [3]: 100% | pest or weed control at 125 g/ha [3]: 100% | pest or weed control at 30 g/ha [4]: 100% | pest or weed control at 125 g/ha [4]: 100% | pest or weed control at 30 g/ha [5]: 90% | pest or weed control at 125 g/ha [5]: 100%

C#CCC1CC(OC(C)=O)=C(c2c(C)cc(-c3ccc(F)cc3)cc2C)C1=O (centres unmarked) [Compound A45]
pest or weed control at 30 g/ha [1]: 100% | pest or weed control at 125 g/ha [1]: 100% | pest or weed control at 30 g/ha (Setaria faberi (SETFA)): 90% | pest or weed control at 125 g/ha (Setaria faberi (SETFA)): 100% | pest or weed control at 30 g/ha [2]: 100% | pest or weed control at 125 g/ha [2]: 100% | pest or weed control at 30 g/ha [3]: 100% | pest or weed control at 125 g/ha [3]: 100% | pest or weed control at 30 g/ha [4]: 90% | pest or weed control at 125 g/ha [4]: 100% | pest or weed control at 30 g/ha [5]: 70% | pest or weed control at 125 g/ha [5]: 100%

C#CCC1CC(=O)C(c2c(F)cc(-c3ccc(Cl)cn3)cc2Cl)C1=O (centres unmarked) [Compound A8]
pest or weed control at 30 g/ha [1]: 100% | pest or weed control at 250 g/ha [1]: 100% | pest or weed control at 30 g/ha (Setaria faberi (SETFA)): 90% | pest or weed control at 250 g/ha (Setaria faberi (SETFA)): 100% | pest or weed control at 30 g/ha [2]: 70% | pest or weed control at 250 g/ha [2]: 100% | pest or weed control at 30 g/ha [3]: 90% | pest or weed control at 250 g/ha [3]: 100% | pest or weed control at 30 g/ha [5]: 100% | pest or weed control at 250 g/ha [5]: 100%

C#CCC1CC(=O)C(c2cc(-c3ncc(Cl)cc3F)ccc2C)C1=O (centres unmarked) [Compound A18]
pest or weed control at 250 g/ha [1]: 60% | pest or weed control at 250 g/ha (Setaria faberi (SETFA)): 70% | pest or weed control at 250 g/ha [2]: 90% | pest or weed control at 250 g/ha [3]: 50% | pest or weed control at 250 g/ha [5]: 70%

C#CCC1CC(=O)C(c2c(F)cc(-c3ccc(F)c(F)c3)cc2OC)C1=O (centres unmarked) [Compound A22]
pest or weed control at 30 g/ha [1]: 60% | pest or weed control at 125 g/ha [1]: 100% | pest or weed control at 30 g/ha (Setaria faberi (SETFA)): 80% | pest or weed control at 125 g/ha (Setaria faberi (SETFA)): 100% | pest or weed control at 30 g/ha [2]: 70% | pest or weed control at 125 g/ha [2]: 100% | pest or weed control at 30 g/ha [3]: 70% | pest or weed control at 125 g/ha [3]: 100% | pest or weed control at 30 g/ha [4]: 90% | pest or weed control at 125 g/ha [4]: 100% | pest or weed control at 30 g/ha [5]: 70% | pest or weed control at 125 g/ha [5]: 100%

C#CCC1CC(=O)C(c2cc(-c3ccc(Cl)cc3Cl)ccc2C)C1=O (centres unmarked) [Compound A15]
pest or weed control at 250 g/ha [1]: 70% | pest or weed control at 250 g/ha (Setaria faberi (SETFA)): 30% | pest or weed control at 250 g/ha [2]: 70% | pest or weed control at 250 g/ha [3]: 30% | pest or weed control at 250 g/ha [5]: 40%

C#CCC1CC(=O)C(c2c(F)cc(-c3ccc(Cl)cc3)cc2Cl)C1=O (centres unmarked) [Compound A6, 2-[2-chloro-4-(4-chlorophenyl)-6-fluorophenyl]-4-prop-2-ynylcyclopentane-1,3-dione]
pest or weed control at 125 g/ha [1]: 100% | pest or weed control at 250 g/ha [1]: 100% | pest or weed control at 125 g/ha (Setaria faberi (SETFA)): 100% | pest or weed control at 250 g/ha (Setaria faberi (SETFA)): 100% | pest or weed control at 125 g/ha [2]: 100% | pest or weed control at 250 g/ha [2]: 100% | pest or weed control at 125 g/ha [3]: 100% | pest or weed control at 250 g/ha [3]: 100% | pest or weed control at 125 g/ha [5]: 100% | pest or weed control at 250 g/ha [5]: 100%

C#CCC1CC(=O)C(c2c(CC)cc(C)cc2CC)C1=O (centres unmarked) [Compound A25, 2-(2,6-diethyl-4-methyl-phenyl)-4-(prop-2-ynyl)-cyclopentane-1,3-dione]
pest or weed control at 30 g/ha [1]: 100% | pest or weed control at 125 g/ha [1]: 100% | pest or weed control at 30 g/ha (Setaria faberi (SETFA)): 90% | pest or weed control at 125 g/ha (Setaria faberi (SETFA)): 100% | pest or weed control at 30 g/ha [2]: 100% | pest or weed control at 125 g/ha [2]: 100% | pest or weed control at 30 g/ha [3]: 100% | pest or weed control at 125 g/ha [3]: 100% | pest or weed control at 30 g/ha [4]: 100% | pest or weed control at 125 g/ha [4]: 100% | pest or weed control at 30 g/ha [5]: 100% | pest or weed control at 125 g/ha [5]: 100%

C#CCC1CC(=O)C(c2cc(-c3ncc(Cl)cn3)ccc2C)C1=O (centres unmarked) [Compound A19]
pest or weed control at 250 g/ha [1]: 70% | pest or weed control at 250 g/ha (Setaria faberi (SETFA)): 60% | pest or weed control at 250 g/ha [2]: 70% | pest or weed control at 250 g/ha [3]: 70% | pest or weed control at 250 g/ha [5]: 70%
